# Counter-ions that a name gives are not always drawn.
# Test system: recombinant NL4-3 virus (Renilla luciferase in nef, Gag P373S; NLRluc) in MT-2 cells
# Test: whole plant or invertebrate
# Format: cell-based, HIV
# Conditions: Renilla, NL43, luciferase activity in cells infected for 4-5 days with NLRluc recombinants, serial dilutions of inhibitor; class symbols (key in Table 1); read-out: EC50
# Method in brief: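 Read-out is Renilla luciferase, measured immediately after adding a premixed lysis/Dual Luciferase reagent. The reporter virus, NL4-3 with luciferase replacing part of nef plus Gag P373S, infected MT-2 cells for 4–5 days under serially diluted inhibitor.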
row,SMILES,EC50
1,"C=C(C)[C@@H]1CC[C@]2(NC(=O)CN3C[C@@H](C)O[C@@H](C)C3)CC[C@]3(C)[C@H](CC[C@@H]4[C@@]5(C)CC=C(c6ccc(C(=O)O)cc6)C(C)(C)[C@@H]5CC[C@]43C)[C@@H]12 [Example 83, 4-((1R,3aS,5aR,5bR,7aR,11aS,11bR,13aR,13bR)-3a-(2-((2S,6R)-2,6-dimethylmorpholino)acetamido)-5a,5b,8,8,11a-pentamethyl-1-(prop-1-en-2-yl)-2,3,3a,4,5,5a,5b,6,7,7a,8,11,11a,11b,12,13,13a,13b-octadecahydro-1H-cyclopenta[a]chrysen-9-yl)benzoic acid]",< 100 nM
2,"C=C(C)[C@@H]1CC[C@]2(NCCCNC(=O)OC(C)(C)C)CC[C@]3(C)[C@H](CC[C@@H]4[C@@]5(C)CC=C(c6ccc(C(=O)O)cc6)C(C)(C)[C@@H]5CC[C@]43C)[C@@H]12 [Example 143, 4-((1R,3aS,5aR,5bR,7aR,11aS,11bR,13aR,13bR)-3a-(3-(tert-butoxycarbonylamino)propylamino)-5a,5b,8,8,11a-pentamethyl-1-(prop-1-en-2-yl)-2,3,3a,4,5,5a,5b,6,7,7a,8,11,11a,11b,12,13,13a,13b-octadecahydro-1H-cyclopenta[a]chrysen-9-yl)benzoic acid]",< 100 nM
3,"CC(C)[C@@H]1CC[C@]2(N(CCN(C)C)CCN(C)C)CC[C@]3(C)[C@H](CC[C@@H]4[C@@]5(C)CC[C@H](c6ccc(C(=O)O)cc6)C(C)(C)[C@@H]5CC[C@]43C)[C@@H]12 [Example B6, 4-((1S,3aS,5aR,5bR,7aS,9S,11aS,11bR,13aR,13bR)-3a-(bis(2-(dimethylamino)ethyl)amino)-1-isopropyl-5a,5b,8,8,11a-pentamethylicosahydro-1H-cyclopenta[a]chrysen-9-yl)benzoic acid]",< 100 nM
4,"C=C(C)[C@@H]1CC[C@]2(NC(=O)OC)CC[C@]3(C)[C@H](CC[C@@H]4[C@@]5(C)CC=C(c6ccc(C(=O)O)cc6)C(C)(C)[C@@H]5CC[C@]43C)[C@@H]12 [Example 36, 4-((1R,3aS,5aR,5bR,7aR,11aS,11bR,13aR,13bR)-3a-(methoxycarbonylamino)-5a,5b,8,8,11a-pentamethyl-1-(prop-1-en-2-yl)-2,3,3a,4,5,5a,5b,6,7,7a,8,11,11a,11b,12,13,13a,13b-octadecahydro-1H-cyclopenta[a]chrysen-9-yl)benzoic acid]",< 100 nM
5,"C=C(C)[C@@H]1CC[C@]2(NCCNc3ccncc3)CC[C@]3(C)[C@H](CC[C@@H]4[C@@]5(C)CC=C(c6ccc(C(=O)O)cc6)C(C)(C)[C@@H]5CC[C@]43C)[C@@H]12 [Example 190, 4-((1R,3aS,5aR,5bR,7aR,11aS,11bR,13aR,13bR)-5a,5b,8,8,11a-pentamethyl-1-(prop-1-en-2-yl)-3a-(2-(pyridin-4-ylamino)ethylamino)-2,3,3a,4,5,5a,5b,6,7,7a,8,11,11a,11b,12,13,13a,13b-octadecahydro-1H-cyclopenta[a]chrysen-9-yl)benzoic acid]",< 100 nM
6,"C=C(C)[C@@H]1CC[C@]2(N)CC[C@]3(C)[C@H](CC[C@@H]4[C@@]5(C)CC=C(c6ccc(C(=O)O)s6)C(C)(C)[C@@H]5CC[C@]43C)[C@@H]12 [Example B1, 5-((1R,3aS,5aR,5bR,7aR,11aS,11bR,13aR,13bR)-3a-amino-5a,5b,8,8,11a-pentamethyl-1-(prop-1-en-2-yl)-2,3,3a,4,5,5a,5b,6,7,7a,8,11,11a,11b,12,13,13a,13b-octadecahydro-1H-cyclopenta[a]chrysen-9-yl)thiophene-2-carboxylic acid]",< 100 nM
7,"C=C(C)[C@@H]1CC[C@]2(NCC(C)C)CC[C@]3(C)[C@H](CC[C@@H]4[C@@]5(C)CC=C(c6ccc(C(=O)O)cc6)C(C)(C)[C@@H]5CC[C@]43C)[C@@H]12 [Example 181, 4-((1R,3aS,5aR,5bR,7aR,11aS,11bR,13aR,13bR)-3a-(isobutylamino)-5a,5b,8,8,11a-pentamethyl-1-(prop-1-en-2-yl)-2,3,3a,4,5,5a,5b,6,7,7a,8,11,11a,11b,12,13,13a,13b-octadecahydro-1H-cyclopenta[a]chrysen-9-yl)benzoic acid]",< 100 nM
8,"C=C(C)[C@@H]1CC[C@]2(NS(=O)(=O)Cc3ccccn3)CC[C@]3(C)[C@H](CC[C@@H]4[C@@]5(C)CC=C(c6ccc(C(=O)O)cc6)C(C)(C)[C@@H]5CC[C@]43C)[C@@H]12 [Example 131, 4-((1R,3aS,5aR,5bR,7aR,11aS,11bR,13aR,13bR)-5a,5b,8,8,11a-pentamethyl-1-(prop-1-en-2-yl)-3a-(pyridin-2-ylmethylsulfonamido)-2,3,3a,4,5,5a,5b,6,7,7a,8,11,11a,11b,12,13,13a,13b-octadecahydro-1H-cyclopenta[a]chrysen-9-yl)benzoic acid]",< 100 nM
9,"C=C(C)[C@@H]1CC[C@]2(NCCN3CC4(COC4)C3)CC[C@]3(C)[C@H](CC[C@@H]4[C@@]5(C)CC=C(c6ccc(C(=O)O)cc6)C(C)(C)[C@@H]5CC[C@]43C)[C@@H]12 [Example B17, 4-((1R,3aS,5aR,5bR,7aR,11aS,11bR,13aR,13bR)-3a-((2-(2-oxa-6-azaspiro[3.3]heptan-6-yl)ethyl)amino)-5a,5b,8,8,11a-pentamethyl-1-(prop-1-en-2-yl)-2,3,3a,4,5,5a,5b,6,7,7a,8,11,11a,11b,12,13,13a,13b-octadecahydro-1H-cyclopenta[a]chrysen-9-yl)benzoic acid]",< 100 nM
10,"C=C(C)[C@@H]1CC[C@]2(NC(=O)CCN3CCS(=O)(=O)CC3)CC[C@]3(C)[C@H](CC[C@@H]4[C@@]5(C)CC=C(c6ccc(C(=O)O)cc6)C(C)(C)[C@@H]5CC[C@]43C)[C@@H]12 [Example 81, benzoic acid, 4-[(1R,3aS,5aR,5bR,7aR,11aS,11bR,13aR,13bR)-3a-[[3-(1,1-dioxido-4-thiomorpholinyl)-1-oxopropyl]amino]-2,3,3a,4,5,5a,5b,6,7,7a,8,11,11a,11b,12,13,13a,13b-octadecahydro-5a,5b,8,8,11a-pentamethyl-1-(1-methylethenyl)-1H-cyclopenta[a]chrysen-9-yl]]",< 100 nM
11,"C=C(C)[C@@H]1CC[C@]2(NCC(=O)N3CCCC3)CC[C@]3(C)[C@H](CC[C@@H]4[C@@]5(C)CC=C(c6ccc(C(=O)O)cc6)C(C)(C)[C@@H]5CC[C@]43C)[C@@H]12 [Example 147, 4-((1R,3aS,5aR,5bR,7aR,11aS,11bR,13aR,13bR)-5a,5b,8,8,11a-pentamethyl-3a-(2-oxo-2-(pyrrolidin-1-yl)ethylamino)-1-(prop-1-en-2-yl)-2,3,3a,4,5,5a,5b,6,7,7a,8,11,11a,11b,12,13,13a,13b-octadecahydro-1H-cyclopenta[a]chrysen-9-yl)benzoic acid]",< 100 nM
12,"C=C(C)[C@@H]1CC[C@]2(NCCN3CCC(C(=O)O)CC3)CC[C@]3(C)[C@H](CC[C@@H]4[C@@]5(C)CC=C(c6ccc(C(=O)O)cc6)C(C)(C)[C@@H]5CC[C@]43C)[C@@H]12 [Example 170, 1-(2-(((1R,3aS,5aR,5bR,7aR,11aS,11bR,13aR,13bR)-9-(4-carboxyphenyl)-5a,5b,8,8,11a-pentamethyl-1-(prop-1-en-2-yl)-2,3,3a,4,5,5a,5b,6,7,7a,8,11,11a,11b,12,13,13a,13b-octadecahydro-1H-cyclopenta[a]chrysen-3a-yl)amino)ethyl)piperidine-4-carboxylic acid]",< 100 nM
13,"C=C(C)[C@@H]1CC[C@]2(NCCN3CCN(S(=O)(=O)c4ccc5c(c4)OCCO5)CC3)CC[C@]3(C)[C@H](CC[C@@H]4[C@@]5(C)CC=C(c6ccc(C(=O)O)cc6)C(C)(C)[C@@H]5CC[C@]43C)[C@@H]12 [Example B52, 4-((1R,3aS,5aR,5bR,7aR,11aS,11bR,13aR,13bR)-3a-((2-(4-((2,3-dihydrobenzo[b][1,4]dioxin-6-yl)sulfonyl)piperazin-1-yl)ethyl)amino)-5a,5b,8,8,11a-pentamethyl-1-(prop-1-en-2-yl)-2,3,3a,4,5,5a,5b,6,7,7a,8,11,11a,11b,12,13,13a,13b-octadecahydro-1H-cyclopenta[a]chrysen-9-yl)benzoic acid]",< 100 nM
14,"C=C(C)[C@@H]1CC[C@]2(NC(=O)Cn3cnnn3)CC[C@]3(C)[C@H](CC[C@@H]4[C@@]5(C)CC=C(c6ccc(C(=O)O)cc6)C(C)(C)[C@@H]5CC[C@]43C)[C@@H]12 [Example 103, 4-((1R,3aS,5aR,5bR,7aR,11aS,11bR,13aR,13bR)-3a-(2-(1H-tetrazol-1-yl)acetamido)-5a,5b,8,8,11a-pentamethyl-1-(prop-1-en-2-yl)-2,3,3a,4,5,5a,5b,6,7,7a,8,11,11a,11b,12,13,13a,13b-octadecahydro-1H-cyclopenta[a]chrysen-9-yl)benzoic acid]",< 100 nM
15,"C=C(C)[C@@H]1CC[C@]2(Nc3nc(-c4ccccn4)cs3)CC[C@]3(C)[C@H](CC[C@@H]4[C@@]5(C)CC=C(c6ccc(C(=O)O)cc6)C(C)(C)[C@@H]5CC[C@]43C)[C@@H]12 [Example 187, 4-((1R,3aS,5aR,5bR,7aR,11aS,11bR,13aR,13bR)-5a,5b,8,8,11a-pentamethyl-1-(prop-1-en-2-yl)-3a-(4-(pyridin-2-yl)thiazol-2-ylamino)-2,3,3a,4,5,5a,5b,6,7,7a,8,11,11a,11b,12,13,13a,13b-octadecahydro-1H-cyclopenta[a]chrysen-9-yl)benzoic acid, TFA]",< 100 nM

# Same assay, conditions: Renilla, NL43, luciferase activity in cells infected for 4-5 days with NLRluc recombinants, serial dilutions of inhibitor; numeric values; read-out: EC50
row,SMILES,EC50
1,"C=C(C)[C@@H]1CC[C@]2(NCCNCCC(=O)O)CC[C@]3(C)[C@H](CC[C@@H]4[C@@]5(C)CC=C(c6ccc(C(=O)O)cc6)C(C)(C)[C@@H]5CC[C@]43C)[C@@H]12 [Example 140, 4-((1R,3aS,5aR,5bR,7aR,11aS,11bR,13aR,13bR)-3a-(2-(2-carboxyethylamino)ethylamino)-5a,5b,8,8,11a-pentamethyl-1-(prop-1-en-2-yl)-2,3,3a,4,5,5a,5b,6,7,7a,8,11,11a,11b,12,13,13a,13b-octadecahydro-1H-cyclopenta[a]chrysen-9-yl)benzoic acid]",9 nM
